Reference: ChEMBL document CHEMBL1201862, “PubChem BioAssay data set” (2004)
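Cultured in 96-well plates, cells were exposed to test compound for 48 hours across five concentrations. GI50: concentration for 50% inhibition of growth.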 Activity calls are given as the source filed them. Cut-off read from the data, not from the text of the source: active = GI50 up to about 1.1 µM and inactive = higher.

Columns and labels:
Experiment in all cases: DTP human tumour cell line panel, 48 h
[1] = system: SN12C
[2] = system: SW-620
[3] = system: U-251
[4] = system: A498
[5] = system: OVCAR-8
[6] = system: HT-29
[7] = system: SK-MEL-5
[8] = system: RPMI-8226
[9] = system: TK-10
[10] = system: OVCAR-5
[11] = system: RXF 393
[12] = system: M14
[13] = system: SNB-75
[14] = system: NCI-H226
[15] = system: SNB-78
[16] = system: LXFL 529
[17] = system: KM-20L2
[18] = system: DLD-1
[19] = system: OVCAR-3
[20] = system: HCT-116
[21] = system: M19-MEL
[22] = system: SF-539
[23] = system: UACC-257
[24] = system: SF-268
[25] = system: KM12
[26] = system: IGROV-1
[27] = system: OVCAR-4
[28] = system: LOX IMVI
[29] = system: DMS-273
[30] = system: HCT-15
[31] = system: UO-31
[32] = system: CAKI-1
[33] = system: NCI-H23
[34] = system: A549
[35] = system: SK-MEL-28
[36] = system: 786-0
[37] = system: CCRF-CEM
[38] = system: NCI-H460
[39] = system: ACHN
[40] = system: UACC-62
[41] = system: HOP-18
[42] = system: COLO 205
[43] = system: MOLT-4
[44] = system: SF-295
[45] = system: SK-MEL-2
[46] = system: Malme-3M
[47] = system: HOP-92
[48] = system: HCC 2998
[49] = system: SK-OV-3
[50] = system: EKVX
[51] = system: K562
[52] = system: NCI-H522
[53] = system: HL-60
[54] = system: SNB-19

COC(=O)c1c(-c2ccccc2)sc(-c2cccc3ccccc23)c1C(=O)OC was tested. Which GI50 [1] did it give?
The GI50 was > 100 µM (inactive).

And the GI50 [2]?
The GI50 was > 100 µM (inactive).

And the GI50 [3]?
The GI50 was > 100 µM (inactive).

And the GI50 [4]?
Its GI50 is > 100 µM (inactive).

And the GI50 [5]?
The GI50 was > 100 µM (inactive).

And the GI50 [6]?
Its GI50 is 51.3 µM (inactive).

What about the GI50 [7] of the same compound?
Its GI50 is > 100 µM (inactive).

What about the GI50 [8] of the same compound?
The GI50 was > 100 µM (inactive).

What about the GI50 [9] of the same compound?
Its GI50 is > 100 µM (inactive).

What about the GI50 [10] of the same compound?
Its GI50 is > 100 µM (inactive).

And the GI50 [11]?
The GI50 was > 100 µM (inactive).

And the GI50 [12]?
Its GI50 is > 100 µM (inactive).

What about the GI50 [13] of the same compound?
The GI50 was > 100 µM (inactive).

What about the GI50 [14] of the same compound?
The GI50 was > 100 µM (inactive).

And the GI50 [15]?
The GI50 was > 100 µM (inactive).

And the GI50 [16]?
Its GI50 is > 100 µM (inactive).

What about the GI50 [17] of the same compound?
The GI50 was > 100 µM (inactive).

What about the GI50 [18] of the same compound?
The GI50 was 18 µM (inactive).

What about the GI50 [19] of the same compound?
Its GI50 is 81.1 µM (inactive).

And the GI50 [20]?
Its GI50 is > 100 µM (inactive).

And the GI50 [21]?
The GI50 was > 100 µM (inactive).

What about the GI50 [22] of the same compound?
Its GI50 is > 100 µM (inactive).

What about the GI50 [23] of the same compound?
The GI50 was > 100 µM (inactive).

What about the GI50 [24] of the same compound?
Its GI50 is > 100 µM (inactive).

And the GI50 [25]?
Its GI50 is > 100 µM (inactive).

What about the GI50 [26] of the same compound?
The GI50 was > 100 µM (inactive).

What about the GI50 [27] of the same compound?
The GI50 was 84.7 µM (inactive).

What about the GI50 [28] of the same compound?
Its GI50 is > 100 µM (inactive).

And the GI50 [29]?
The GI50 was > 100 µM (inactive).

And the GI50 [30]?
The GI50 was greater than 100 µM.

And the GI50 [31]?
The GI50 was 58.2 µM (inactive).

And the GI50 [32]?
The GI50 was > 100 µM (inactive).

What about the GI50 [33] of the same compound?
The GI50 was > 100 µM (inactive).

What about the GI50 [34] of the same compound?
Its GI50 is > 100 µM (inactive).

What about the GI50 [35] of the same compound?
The GI50 was > 100 µM (inactive).

And the GI50 [36]?
The GI50 was > 100 µM (inactive).

What about the GI50 [37] of the same compound?
The GI50 was > 100 µM (inactive).

What about the GI50 [38] of the same compound?
The GI50 was > 100 µM (inactive).

And the GI50 [39]?
The GI50 was > 100 µM (inactive).

And the GI50 [40]?
Its GI50 is > 100 µM (inactive).

And the GI50 [41]?
Its GI50 is > 100 µM (inactive).

What about the GI50 [42] of the same compound?
The GI50 was > 100 µM (inactive).

And the GI50 [43]?
The GI50 was > 100 µM (inactive).

And the GI50 [44]?
Its GI50 is > 100 µM (inactive).

And the GI50 [45]?
Its GI50 is > 100 µM (inactive).

And the GI50 [46]?
Its GI50 is 21.9 µM (inactive).

And the GI50 [47]?
The GI50 was > 100 µM (inactive).

What about the GI50 [48] of the same compound?
The GI50 was 88.3 µM (inactive).

And the GI50 [49]?
Its GI50 is > 100 µM (inactive).

And the GI50 [50]?
The GI50 was > 100 µM (inactive).

What about the GI50 [51] of the same compound?
The GI50 was > 100 µM (inactive).

And the GI50 [52]?
Its GI50 is > 100 µM (inactive).

And the GI50 [53]?
Its GI50 is > 100 µM (inactive).

And the GI50 [54]?
Its GI50 is > 100 µM (inactive).
